Legend:
[1] = biological target: Poly [ADP-ribose] polymerase 1 (Homo sapiens, UniProt P09874); experiment: Inhibition of recombinant human full-length PARP-1 using biotinylated substrate
[2] = biological target: T1, Poly [ADP-ribose] polymerase 2 (Homo sapiens, UniProt Q9UGN5); experiment: Inhibition of recombinant human full-length PARP-2 using biotinylated substrate
Homo sapiens [3] = species on record: Homo sapiens; experiment: Selectivity index, ratio of IC50 for inhibition of recombinant human full-length PARP-2 to IC50 for inhibition of recombinant human full-length PARP-1
[4] = biological target: T1, Poly [ADP-ribose] polymerase 2; experiment: Inhibition of PARP-2 (unknown origin)
Homo sapiens [5] = species on record: Homo sapiens; experiment: Selectivity index, ratio of IC50 for PARP-2 (unknown origin) to IC50 for PARP-1 (unknown origin)

T1 sequence (Q9UGN5 whole entry): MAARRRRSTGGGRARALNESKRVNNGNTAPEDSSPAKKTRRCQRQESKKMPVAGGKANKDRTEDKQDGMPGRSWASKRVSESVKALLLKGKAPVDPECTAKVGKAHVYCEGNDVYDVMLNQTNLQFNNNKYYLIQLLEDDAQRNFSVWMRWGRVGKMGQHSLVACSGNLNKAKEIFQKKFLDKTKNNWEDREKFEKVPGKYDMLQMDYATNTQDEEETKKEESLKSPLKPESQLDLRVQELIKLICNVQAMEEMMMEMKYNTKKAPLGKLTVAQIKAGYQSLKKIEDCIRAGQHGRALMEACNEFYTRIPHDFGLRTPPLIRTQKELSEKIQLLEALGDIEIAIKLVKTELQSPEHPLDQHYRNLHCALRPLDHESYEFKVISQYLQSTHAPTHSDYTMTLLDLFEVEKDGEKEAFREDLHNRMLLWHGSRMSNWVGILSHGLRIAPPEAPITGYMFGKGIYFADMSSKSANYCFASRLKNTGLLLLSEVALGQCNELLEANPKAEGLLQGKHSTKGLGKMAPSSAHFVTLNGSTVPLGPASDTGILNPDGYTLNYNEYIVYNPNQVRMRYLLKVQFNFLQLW
Chain of Poly [ADP-ribose] polymerase 1 (P09874 whole entry): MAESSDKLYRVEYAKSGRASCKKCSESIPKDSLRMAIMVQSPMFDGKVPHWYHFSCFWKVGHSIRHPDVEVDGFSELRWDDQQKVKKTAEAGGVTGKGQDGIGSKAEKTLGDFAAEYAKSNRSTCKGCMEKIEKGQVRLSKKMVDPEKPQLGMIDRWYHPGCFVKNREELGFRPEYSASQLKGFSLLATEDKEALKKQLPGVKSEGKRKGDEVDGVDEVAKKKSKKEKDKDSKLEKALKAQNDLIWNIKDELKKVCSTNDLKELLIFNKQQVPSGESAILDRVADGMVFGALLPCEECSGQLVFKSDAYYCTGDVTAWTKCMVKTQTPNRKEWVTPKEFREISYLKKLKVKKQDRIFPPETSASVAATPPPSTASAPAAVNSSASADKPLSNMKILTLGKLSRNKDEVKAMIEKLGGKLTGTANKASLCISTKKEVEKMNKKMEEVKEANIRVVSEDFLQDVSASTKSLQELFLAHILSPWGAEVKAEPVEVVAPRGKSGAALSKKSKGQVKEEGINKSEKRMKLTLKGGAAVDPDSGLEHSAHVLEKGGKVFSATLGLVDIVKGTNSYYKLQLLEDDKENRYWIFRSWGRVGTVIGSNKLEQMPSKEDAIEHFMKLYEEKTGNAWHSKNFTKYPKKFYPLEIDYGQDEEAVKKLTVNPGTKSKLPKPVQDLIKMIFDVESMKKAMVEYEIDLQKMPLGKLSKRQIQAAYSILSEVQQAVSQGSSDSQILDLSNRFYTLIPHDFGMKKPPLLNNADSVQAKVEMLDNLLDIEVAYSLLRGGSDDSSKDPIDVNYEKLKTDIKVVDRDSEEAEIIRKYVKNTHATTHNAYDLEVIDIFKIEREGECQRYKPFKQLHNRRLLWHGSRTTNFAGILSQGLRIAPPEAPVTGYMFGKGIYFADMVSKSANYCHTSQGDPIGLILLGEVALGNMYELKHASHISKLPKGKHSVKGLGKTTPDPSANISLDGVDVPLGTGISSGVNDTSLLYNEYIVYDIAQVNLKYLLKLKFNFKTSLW

Compound	IC50 [1] [nM]	IC50 [2] [nM]	Ratio IC50 (Homo sapiens [3])	IC50 [4] [nM]	Ratio IC50 (Homo sapiens [5])
COc1ccc(CN2CCN(Cc3c(O)cc(O)c4c(=O)cc(-c5ccc(O)cc5)oc34)CC2)c(OC)c1OC	21.6	1200	55.5	–	–
CC(=O)N1CCN(Cc2c(O)cc(O)c3c(=O)cc(-c4ccc(O)cc4)oc23)CC1	42.6	3000	70.4	–	–
O=c1cc(-c2ccc(O)cc2)oc2c(CN3CCN(c4ccc(Cl)cc4)CC3)c(O)cc(O)c12	60.8	3700	60.8	–	–
COC(=O)C1CCN(Cc2c(O)cc(O)c3c(=O)cc(-c4ccc(O)cc4)oc23)CC1	97.6	6700	68.6	–	–
O=c1cc(-c2ccc(O)cc2)oc2c(CN3CCC(CO)CC3)c(O)cc(O)c12	80.2	4800	59.8	–	–
O=C(C1CCCCC1)N1CCN(Cc2c(O)cc(O)c3c(=O)cc(-c4ccc(O)cc4)oc23)CC1	44.5	2300	51.7	–	–
O=c1cc(-c2ccc(O)cc2)oc2c(CN3CCN(CC4CCCCC4)CC3)c(O)cc(O)c12	58.3	3200	54.9	–	–
O=c1cc(-c2ccc(O)cc2)oc2c(CN3CCC(c4ccccc4)CC3)c(O)cc(O)c12	71.9	4000	55.6	–	–
O=C(c1ccccn1)N1CCN(Cc2c(O)cc(O)c3c(=O)cc(-c4ccc(O)cc4)oc23)CC1	21.8	1300	59.6	–	–
O=c1cc(-c2ccc(O)cc2)oc2c(CN3CC=C(c4ccccc4)CC3)c(O)cc(O)c12	139	7900	56.6	–	–
O=c1cc(-c2ccc(O)cc2)oc2c(CN3CCN(Cc4ccoc4)CC3)c(O)cc(O)c12	43.8	2600	59.4	–	–
O=C(c1cccc(C(F)(F)F)c1)N1CCN(Cc2c(O)cc(O)c3c(=O)cc(-c4ccc(O)cc4)oc23)CC1	41.9	2900	69.2	–	–
Cc1ccc(N2CCN(Cc3c(O)cc(O)c4c(=O)cc(-c5ccc(O)cc5)oc34)CC2)cc1	48.5	2800	57.7	–	–
O=c1cc(-c2ccc(O)cc2)oc2c(CN3CCN(c4ccc(F)cc4)CC3)c(O)cc(O)c12	51.4	2900	56.4	–	–
CC(C)C(=O)N1CCN(Cc2c(O)cc(O)c3c(=O)cc(-c4ccc(O)cc4)oc23)CC1	37.9	2100	55.4	–	–
O=C(OCc1ccccc1)N1CCN(Cc2c(O)cc(O)c3c(=O)cc(-c4ccc(O)cc4)oc23)CC1	43.8	2100	47.9	–	–
COc1ccc(C(=O)N2CCN(Cc3c(O)cc(O)c4c(=O)cc(-c5ccc(O)cc5)oc34)CC2)cc1	43.4	2500	57.6	–	–
O=C(c1ccncc1)N1CCN(Cc2c(O)cc(O)c3c(=O)cc(-c4ccc(O)cc4)oc23)CC1	27.6	1400	50.7	–	–
O=c1cc(-c2ccc(O)cc2)oc2c(CN3CCN(c4ccccc4O)CC3)c(O)cc(O)c12	37	2000	54	–	–
Cc1cc(C)cc(COC(=O)N2CCN(Cc3c(O)cc(O)c4c(=O)cc(-c5ccc(O)cc5)oc34)CC2)c1	34.6	2000	57.8	–	–
Cc1ccc(CN2CCN(Cc3c(O)cc(O)c4c(=O)cc(-c5ccc(O)cc5)oc34)CC2)cc1	30.6	1800	58.8	–	–
O=c1cc(-c2ccc(O)cc2)oc2c(CN3CCN(c4ccccc4)CC3)c(O)cc(O)c12	35.6	2100	59	–	–
O=C(c1ccc(Cl)cc1)N1CCN(Cc2c(O)cc(O)c3c(=O)cc(-c4ccc(O)cc4)oc23)CC1	56.2	3000	53.4	–	–
Cc1ccc(-c2cc(=O)c3c(O)cc(O)c(-c4cccc(-c5cc(=O)c6c(O)cc(O)cc6o5)c4)c3o2)cc1C	250	12700	50.9	–	–
O=c1cc(-c2ccc(O)cc2)oc2c(CN3CCN(c4ccc(C(F)(F)F)cc4)CC3)c(O)cc(O)c12	49.8	2800	56.2	–	–
O=c1cc(-c2cccc(-c3c(O)cc(O)c4c(=O)cc(-c5ccc(C(F)(F)F)cc5)oc34)c2)oc2cc(O)cc(O)c12	502	26400	52.6	–	–

Compound	IC50 [1] [nM]	IC50 [2] [nM]	Ratio IC50 (Homo sapiens [3])	IC50 [4] [nM]	Ratio IC50 (Homo sapiens [5])
O=C(C1CC1)N1CCN(Cc2c(O)cc(O)c3c(=O)cc(-c4ccc(O)cc4)oc23)CC1	37.5	2500	66.7	–	–
CC(C)CCN1CCN(Cc2c(O)cc(O)c3c(=O)cc(-c4ccc(O)cc4)oc23)CC1	70.6	3700	52.4	–	–
O=c1cc(-c2ccc(O)cc2)oc2c(CN3CCN(c4ccc(O)cc4)CC3)c(O)cc(O)c12	39.7	2900	73	–	–
Cc1ccc(-c2cc(=O)c3c(O)cc(O)c(-c4cccc(-c5cc(=O)c6c(O)cc(O)cc6o5)c4)c3o2)cc1	296	12500	42.2	–	–
O=c1cc(-c2ccc(O)cc2)oc2c(CN3CCN(Cc4ccncc4)CC3)c(O)cc(O)c12	19.8	1100	55.5	–	–
O=C(c1cccnc1)N1CCN(Cc2c(O)cc(O)c3c(=O)cc(-c4ccc(O)cc4)oc23)CC1	26.2	1500	57.2	–	–
O=c1cc(-c2cccc(-c3c(O)cc(O)c4c(=O)cc(-c5ccco5)oc34)c2)oc2cc(O)cc(O)c12	386	14700	38	–	–
O=c1cc(-c2cccc(-c3c(O)cc(O)c4c(=O)cc(-c5cccs5)oc34)c2)oc2cc(O)cc(O)c12	202	11100	55	–	–
CCOC(=O)C1CCN(Cc2c(O)cc(O)c3c(=O)cc(-c4ccc(O)cc4)oc23)CC1	92.8	5600	60.3	–	–
O=c1cc(-c2cccc(-c3c(O)cc(O)c4c(=O)cc(-c5ccc(O)cc5)oc34)c2)oc2cc(O)cc(O)c12	196	10300	52.5	–	–
O=c1cc(-c2ccc(O)cc2)oc2c(CN3CCN(Cc4ccc(C(F)(F)F)cc4)CC3)c(O)cc(O)c12	29.8	1900	63.7	–	–
O=c1cc(-c2ccc(O)cc2)oc2c(CN3CCN(Cc4ccc(Cl)cc4)CC3)c(O)cc(O)c12	31.6	1800	57	–	–
O=c1cc(-c2cccc(-c3c(O)cc(O)c4c(=O)cc(-c5ccc(O)c(O)c5)oc34)c2)oc2cc(O)cc(O)c12	642	29500	45.9	–	–
COc1cc(CN2CCN(Cc3c(O)cc(O)c4c(=O)cc(-c5ccc(O)cc5)oc34)CC2)cc(OC)c1	27.2	1700	62.5	–	–
Cn1cccc1/C=C1\C(=O)NC(=O)c2ccccc21	–	–	–	40000	88.9
O=C(C1CCC1)N1CCN(Cc2c(O)cc(O)c3c(=O)cc(-c4ccc(O)cc4)oc23)CC1	45.5	2600	57.1	–	–
O=c1cc(-c2cccc(-c3c(O)cc(O)c4c(=O)cc(-c5ccc(F)cc5)oc34)c2)oc2cc(O)cc(O)c12	179	8500	47.4	–	–
O=c1cc(-c2ccc(O)cc2)oc2c(CN3CCN(CC4CC4)CC3)c(O)cc(O)c12	54.6	2900	53.1	–	–
O=c1cc(-c2ccc(O)cc2)oc2c(CN3CCN(CC4CCCO4)CC3)c(O)cc(O)c12 (centres undefined)	40.4	2500	61.9	–	–
COc1cc(/C=N/NC(N)=S)c(Br)c(Br)c1OC	–	–	–	> 1000	> 33.9
O=C(c1cccc(F)c1F)C1CCN(Cc2c(O)cc(O)c3c(=O)cc(-c4ccc(O)cc4)oc23)CC1	79.2	4500	56.8	–	–
O=c1cc(-c2ccc(O)cc2)oc2c(CN3CCN(Cc4ccsc4)CC3)c(O)cc(O)c12	49.8	2800	56.2	–	–
O=c1cc(-c2ccc(O)cc2)oc2c(CN3CCN(Cc4ccc(F)cc4)CC3)c(O)cc(O)c12	34.5	2000	58	–	–
COc1ccc(CN2CCN(Cc3c(O)cc(O)c4c(=O)cc(-c5ccc(O)cc5)oc34)CC2)cc1	35.4	2000	56.5	–	–
O=C(c1ccccc1)N1CCN(Cc2c(O)cc(O)c3c(=O)cc(-c4ccc(O)cc4)oc23)CC1	50.7	2900	57.2	–	–
O=c1cc(-c2ccc(O)cc2)oc2c(CN3CCN(c4cncnc4)CC3)c(O)cc(O)c12	29.5	1800	61	–	–
